In patent US20250186584A1, “METHODS OF TREATING BILIARY TRACT CANCER USING ANTI-PD-L1 ANTIBODY IN COMBINATION WITH CHEMOTHERAPY” (ASTRAZENECA AB, priority 2022, published 2025):
Several values for one entry are separate records, joined by “and”; a condition that tells them apart may be missing. Identical values can stand only once. Entries after “also recorded” stand apart in the source; their conditions may differ.

Key:
[1] = test system: unresectable, locally advanced, or metastatic biliary tract cancer; experiment: TOPAZ-1 phase 3 study: efficacy of durvalumab or placebo plus gemcitabine and cisplatin (OS, PFS, tumor response per RECIST v1.1); type: in vivo, human; conditions: for Difference in overall survival: versus placebo plus gemcitabine and cisplatin; for Objective response rate: investigator assessment, RECIST v1.1, patients with measurable disease at baseline
Method: This is a randomized, double-blind, placebo controlled, multi-center, global, Phase III study which determined the efficacy and safety of first-line treatment with durvalumab in combination with gemcitabine/cisplatin versus placebo in combination with gemcitabine/cisplatin in patients with previously untreated, unresectable, locally advanced, or metastatic BTC.
Arm A: Durvalumab plus gemcitabine/cisplatin combination therapy. Durvalumab 1500 mg via intravenous (IV) infusion q3w, starting on Cycle 1 in combination with cisplatin 25 mg/m^2 and gemcitabine 1000 mg/m^2 (each administered on Days 1 and 8 q3w) up to 8 cycles, followed by durvalumab 1500 mg as monotherapy q4w until clinical progression or RECIST 1.1-defined radiological progressive disease (PD), unless there is unacceptable toxicity, withdrawal of consent, or another discontinuation criterion is met.
Arm B: Placebo plus gemcitabine/cisplatin therapy. Placebo via IV infusion q3w, starting on Cycle 1 in combination with cisplatin 25 mg/m^2 and gemcitabine 1000 mg/m^2 (each administered on Days 1 and 8 q3w) up to 8 cycles, followed by placebo monotherapy q4w until clinical progression or RECIST 1.1-defined radiological PD, unless there is unacceptable toxicity, withdrawal of consent, or another discontinuation criterion is met.
Adults aged ≥18 years with histologically confirmed unresectable, locally advanced, or metastatic adenocarcinoma of the biliary tract, including intrahepatic or extrahepatic cholangiocarcinoma and gallbladder carcinoma, were eligible for inclusion. Eligible patients included those with previously untreated disease that was unresectable or metastatic at initial diagnosis and those who developed recurrent disease >6 months after surgery with curative intent and >6 months after the completion of adjuvant therapy. Other inclusion criteria included an Eastern Cooperative Oncology Group (ECOG) performance status of 0 or 1, ≥1 measurable lesion per Response Evaluation Criteria in Solid Tumors (RECIST) v1.1, and no prior exposure to immune-meditated therapy. Patients were excluded if they had ampullary carcinoma, active or prior documented autoimmune or inflammatory disorders, or known allergy or hypersensitivity to any study treatment.
TOPAZ-1 was a phase 3, randomized, double-blind, placebo-controlled, global study. Patients were randomly assigned in a 1:1 ratio to receive durvalumab in combination with gemcitabine and cisplatin or placebo in combination with gemcitabine and cisplatin.
Baseline tumor assessments were performed using images acquired≤28 days before randomization. During the study period, tumor assessments were performed every 6 weeks (±1 week) for the first 24 weeks after randomization, and then every 8 weeks (±1 week) thereafter, until radiological disease progression, followed by ≥1 additional follow-up scan. Survival assessments were performed every 2 months following treatment discontinuation. Patients on treatment or in survival follow-up were contacted following the data cutoff for the interim analysis to provide complete survival data. Newly acquired tumor biopsy samples or archival samples taken≤3 years prior to screening were obtained by an image-guided core needle or by excision from all screened patients. Tissue samples were retrospectively evaluated for programmed cell death ligand 1 (PD-L1) expression by the Ventana PD-L1 (SP263) immunohistochemistry assay in all randomized patients using the tumor area positivity (TAP) score method. “TAP” is the proportion of tumor and/or immune cells with PD-L1 staining at any intensity and can be used interchangeably with “TIP.” A TAP score of ≥1% was defined as PD-L1 staining of any intensity in tumor cell membranes and/or tumor-associated immune cells covering ≥1% of the tumor area. A TAP score of <1% was defined as PD-L1 staining of any intensity in tumor cell membranes and/or tumor-associated immune cells covering <1% of tumor area. […]

PD-L1 = PD-L1 (Homo sapiens, UniProt Q9NZQ7); conditions: in vitro; cited from earlier work
xenograft model = conditions: via a T-cell dependent mechanism; cited from earlier work
[2] = patients with objective response

Sequence of PD-L1 (Q9NZQ7 19-290): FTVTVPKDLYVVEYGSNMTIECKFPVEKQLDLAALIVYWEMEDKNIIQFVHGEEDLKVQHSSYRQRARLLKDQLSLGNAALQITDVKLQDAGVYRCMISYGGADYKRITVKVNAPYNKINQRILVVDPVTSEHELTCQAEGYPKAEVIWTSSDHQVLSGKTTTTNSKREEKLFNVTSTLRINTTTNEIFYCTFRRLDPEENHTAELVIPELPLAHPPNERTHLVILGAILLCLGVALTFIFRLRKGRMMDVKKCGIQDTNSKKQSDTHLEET

## Durvalumab plus Gemcitabine and Cisplatin: Durvalumab 1500 mg IV q3w with cisplatin 25 mg/m^2 and gemcitabine 1000 mg/m^2 up to 8 cycles, then durvalumab monotherapy q4w
[1]; at 12 months
  Difference in overall survival: 6%
[1]; at 18 months
  Difference in overall survival: 10%
[1]; at 24 months
  Difference in overall survival: 15%
[1]; full analysis set
  Median overall survival (95% CI): 12.8 months
[1]; listed as durvalumab+GemCis
  Objective response rate: 26.7%
[1]; [2]
  Median duration of response: 6.4 mo
  Median time to response: 1.6 mo
[1]; ≥3 months
  Percentage of patients with continued response: 88.9%
[1]; ≥6 months
  Percentage of patients with continued response: 59.3%
[1]; ≥9 months
  Percentage of patients with continued response: 32.6%
[1]; ≥12 months
  Percentage of patients with continued response: 26.1%
Adverse events of any causality
  Abdominal pain upper, Grade 3/4: 0 no.
immune-mediated adverse events
  Adrenal insufficiency, Grade 3 or 4: 0 no.
  Hyperthyroid events, Grade 3 or 4: 0 no.
  Hypophysitis, Grade 3 or 4: 0 no.
  Hypothyroid events, Grade 3 or 4: 0 no.
  Myositis, Any Grade: 0 no.
  Myositis, Grade 3 or 4: 0 no.
  Pancreatic events, Grade 3 or 4: 0 no.
  Renal events, Any Grade: 0 no.
  Renal events, Grade 3 or 4: 0 no.
  Thyroiditis, Grade 3 or 4: 0 no.

## durvalumab: antibody that selectively binds PD-L1 and blocks the binding of PD-L1 to PD-1 and CD80 receptors
[1]; FIG. 8
  Benefit of the addition of durvalumab to gemcitabine and cisplatin, subgroup analysis of overall survival: observed across all subgroups
[1]; TAP score, Ventana PD-L1 (SP263) assay
  Benefit of the addition of durvalumab to gemcitabine and cisplatin, overall survival by PD-L1 expression: observed across PD-L1 expression; also recorded: observed regardless of PD-L1 expression
[1]; after 6 months, durvalumab versus placebo
  Overall survival hazard ratio (95% CI): 0.74 (0.58-0.94)
[1]; at 12 months
  Estimated overall survival rate (95% CI): 54.1%
[1]; at 18 months
  Estimated overall survival rate (95% CI): 35.1%
[1]; at 24 months
  Estimated overall survival rate (95% CI): 24.9%
[1]; durvalumab versus placebo, each plus gemcitabine and cisplatin, 95% CI 0.66-0.97, P=0.021
  Overall survival hazard ratio: 0.80
[1]; durvalumab versus placebo, 95% CI 0.63-0.89, P=0.001
  Hazard ratio for progression-free survival: 0.75
[1]; durvalumab versus placebo, 95% CI 1.11-2.31
  Objective response rate odds ratio: 1.60
[1]; full analysis set
  Median (95% CI) progression-free survival: 7.2 months and 7.2 (6.7-7.4) months
  Median overall survival (95% CI): 12.8 (11.1-14.0) months
[1]
  Objective response rate: 26.7%
[1]; patients with PD-L1 TAP score of >1%, durvalumab versus placebo, 95% CI 0.61-1.00
  Hazard ratio for overall survival: 0.79
[1]; patients with TAP score <1%, durvalumab versus placebo, 95% CI 0.60-1.23
  Hazard ratio for overall survival: 0.86
[1]; up to 6 months, durvalumab versus placebo
  Overall survival hazard ratio (95% CI): 0.91 (0.66-1.26)
[1]; ≥9 months
  Percentage of patients with continued response: 32.6%
[1]; ≥12 months
  Percentage of patients with continued response: 26.1%
In vivo
  Additional toxicity to that observed with chemotherapy: did not add additional toxicity
  Anemia, Any Grade: 48.2%
  Any immune-mediated adverse event, Any Grade: 12.7%
  Any immune-mediated adverse event, Grade 3 or 4: 2.4%
  Constipation, Any Grade: 32.0%
  Events in the other rare/miscellaneous category of immune-mediated adverse events: immune-mediated arthritis
  Nausea, Any Grade: 40.2%
  Neutropenia, Any Grade: 31.7%
  Treatment-related adverse event leading to discontinuation of any study treatment: 8.9%
PD-L1
  PD-L1-mediated suppression of human T-cell activation: can relieve PD-L1-mediated suppression of human T-cell activation
Xenograft model
  Tumor growth in a xenograft model: inhibits tumor growth
